Read-outs that look alike come from different tables or passages of the source. Numbered stars: 1 amine (or outer) side, 2 acyl side, 3 side chain; on linkers, the order of the positions; unused ones are H or OH. Square brackets hold non-standard residues; d marks the D form. Side chains are listed from the residue outwards. Peptide text beside a SMILES is read from it. * marks the point of attachment. C20 diacid = O=C(O)CCCCCCCCCCCCCCCCCCC(=O)*; γGlu = O=C(O)[C@H](CCC(=O)[*:2])N[*:1]; AEEA = NCCOCCOCC(=O)O; Aib = CC(C)(N)C(=O)O
Columns and labels:
[1] = Turbidity of crude library peptides (absorbance at 600 nm); assay type: physicochemical; conditions: Physical stability of peptides
Summary of the method: (§1)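 Fibril formation is scored as average ThT fluorescence from duplicate samples monitored for 72 h at 40° C with shaking stress. Turbidity is the absorbance at 600 nm taken before heating. Peptide concentration was 267 μM at pH 4.0 or pH 7.0.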

[2] = Fibril formation of crude library peptides (Thioflavin T); assay type: physicochemical; set-up: key: average ThT fluorescence emission at 480 nm (ex 450 nm), raw units; conditions: Physical stability of peptides
Summary of the method: as §1

[3] = molecular target: GLP1R (Homo sapiens, UniProt P43220); experiment: hGLP1R potency, cAMP accumulation in CHO-K1 cells stably overexpressing hGLP1R; assay type: cell-based; set-up: host or cells: CHO-K1; conditions: for Selectivity: SCTR EC50/GLP1R EC50 ratio; for EC50: cAMP accumulation, CHO-K1 cells overexpressing hGLP1R; for SCTR EC50/GLP1R EC50 ratio: selectivity for hGLP1R over hSCTR, cAMP accumulation in CHO-K1 cells
Sequence of GLP1R (P43220 24-463): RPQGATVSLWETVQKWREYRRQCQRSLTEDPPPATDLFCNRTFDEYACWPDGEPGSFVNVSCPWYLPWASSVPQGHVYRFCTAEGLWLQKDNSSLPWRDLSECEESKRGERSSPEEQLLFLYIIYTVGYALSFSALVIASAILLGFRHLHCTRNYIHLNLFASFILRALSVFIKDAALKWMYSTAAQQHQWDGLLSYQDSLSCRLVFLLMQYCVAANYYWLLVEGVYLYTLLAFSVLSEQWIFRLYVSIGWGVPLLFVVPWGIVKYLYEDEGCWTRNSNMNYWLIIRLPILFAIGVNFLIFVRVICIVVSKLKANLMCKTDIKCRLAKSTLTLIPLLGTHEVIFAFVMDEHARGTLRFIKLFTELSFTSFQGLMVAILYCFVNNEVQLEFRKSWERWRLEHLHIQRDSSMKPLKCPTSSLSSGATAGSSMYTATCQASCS
Summary of the method: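 TR-FRET cAMP read-out, one hour after reagent addition, following 30 min compound exposure at RT in DPBS/0.05% casein/0.5 mM IBMX. Crude peptides: 5 points, 10-fold steps, n=1. Purified peptides: 11 points, 3-fold steps, n=2. EC50 fitted with a variable-slope sigmoid.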

[4] = molecular target: SCTR (Homo sapiens, UniProt P47872); experiment: hSCTR potency, cAMP accumulation in CHO-K1 cells stably overexpressing hSCTR; assay type: cell-based; set-up: alternatively Euroscreen ES-712-AF; FAST-0161L; host or cells: CHO-K1; conditions: cAMP accumulation, CHO-K1 cells overexpressing hSCTR
Sequence of SCTR (P47872 23-440): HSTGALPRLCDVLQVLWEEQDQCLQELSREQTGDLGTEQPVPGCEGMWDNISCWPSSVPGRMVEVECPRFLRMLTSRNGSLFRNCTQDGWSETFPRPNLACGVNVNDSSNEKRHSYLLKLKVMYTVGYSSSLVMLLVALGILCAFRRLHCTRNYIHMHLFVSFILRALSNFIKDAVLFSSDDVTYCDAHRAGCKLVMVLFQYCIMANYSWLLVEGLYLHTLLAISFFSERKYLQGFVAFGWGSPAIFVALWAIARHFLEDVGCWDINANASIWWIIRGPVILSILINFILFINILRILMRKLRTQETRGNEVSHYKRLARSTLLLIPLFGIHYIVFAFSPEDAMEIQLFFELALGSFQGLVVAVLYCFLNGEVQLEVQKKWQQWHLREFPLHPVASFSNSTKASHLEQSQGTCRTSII
Summary of the method: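 CHO-K1/hSCTR cells; DPBS + 0.05% casein + 0.5 mM IBMX; 30 min RT stimulation; cAMP by TR-FRET read at 1 h. Crude peptides: 5-point 10-fold dilutions, n=1. Purified: 11-point 3-fold dilutions, n=2. EC50 via variable-slope fit.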

[5] = read-out: pEC50 hGLPR1 (converted)
[6] = read-out: pEC50 hSCTR (converted)
[7] = read-out: hGLP1R pEC50 (converted)
[8] = read-out: hSCTR pEC50 (converted)

SMILES | Turbidity (pH 7) [1] | Fibril formation [2] | Selectivity [3] | EC50 [3, 5] | EC50 [4, 6] | EC50 [3, 7] | SCTR EC50/GLP1R EC50 ratio [3] | EC50 [4, 8]
CC[C@H](C)[C@H](NC(=O)[C@H](CC(=O)O)NC(=O)[C@H](CO)NC(=O)[C@@H](NC(=O)[C@H](Cc1ccccc1)NC(=O)[C@@H](NC(=O)CNC(=O)[C@H](CCC(=O)O)NC(=O)C(C)(C)NC(=O)[C@@H](N)Cc1c[nH]cn1)[C@@H](C)O)[C@@H](C)O)C(=O)N[C@@H](CO)C(=O)N[C@@H](Cc1ccc(O)cc1)C(=O)N[C@@H](CC(C)C)C(=O)N[C@@H](CCCCNC(=O)COCCOCCNC(=O)COCCOCCNC(=O)CC[C@H](NC(=O)CCCCCCCCCCCCCCCCCCC(=O)O)C(=O)O)C(=O)N[C@@H](CCC(=O)O)C(=O)N[C@@H](CCC(=O)O)C(=O)N[C@@H](C)C(=O)NC(C)(C)C(=O)N[C@@H](CC(C)C)C(=O)N[C@@H](CCC(N)=O)C(=O)N[C@@H](CCCNC(=N)N)C(=O)N[C@@H](Cc1ccccc1)C(=O)N[C@@H](CC(C)C)C(=O)N[C@@H](CCC(=O)O)C(=O)N[C@@H](Cc1c[nH]cn1)C(=O)N[C@@H](CC(C)C)C(=O)N[C@H](C(N)=O)C(C)C [compound 114] (H-H[Aib]EGTFTSDISYLK([AEEA-AEEA-γGlu-C20 diacid])EEA[Aib]LQRFLEHLV-NH2) | 0.08 | 4292 | – | – | – | 0.01 nM | 3608 | 39.8 nM
CC(C)C[C@H](NC(=O)[C@H](Cc1ccccc1)NC(=O)[C@H](CCCNC(=N)N)NC(=O)[C@H](CCC(N)=O)NC(=O)C(C)(C)NC(=O)[C@H](C)NC(=O)[C@H](C)NC(=O)C(C)(C)NC(=O)[C@H](CCC(=O)O)NC(=O)[C@H](CCCCNC(=O)COCCOCCNC(=O)COCCOCCNC(=O)CC[C@H](NC(=O)CCCCCCCCCCCCCCCCCCC(=O)O)C(=O)O)NC(=O)[C@H](CC(C)C)NC(=O)[C@H](CCC(=O)O)NC(=O)[C@H](CO)NC(=O)[C@@H](NC(=O)[C@H](CC(=O)O)NC(=O)[C@H](CO)NC(=O)[C@@H](NC(=O)[C@H](Cc1ccccc1)NC(=O)[C@@H](NC(=O)CNC(=O)[C@H](CCC(=O)O)NC(=O)C(C)(C)NC(=O)[C@@H](N)Cc1c[nH]cn1)[C@@H](C)O)[C@@H](C)O)C(C)C)C(=O)N[C@@H](CCC(=O)O)C(=O)N[C@@H](Cc1c[nH]cn1)C(=O)N[C@@H](CC(C)C)C(=O)N[C@H](C(N)=O)C(C)C [compound 7] (H-H[Aib]EGTFTSDVSELK([AEEA-AEEA-γGlu-C20 diacid])E[Aib]AA[Aib]QRFLEHLV-NH2) | 0.08 | 10801 | 18030 | 0.0631 nM | 1000 nM | – | – | –
CC[C@H](C)[C@H](NC(=O)[C@H](Cc1ccccc1)NC(=O)[C@H](CCCNC(=N)N)NC(=O)[C@H](CCC(N)=O)NC(=O)[C@H](CC(C)C)NC(=O)[C@H](C)NC(=O)[C@H](C)NC(=O)CNC(=O)[C@H](CCC(=O)O)NC(=O)[C@H](CC(C)C)NC(=O)[C@H](CC(C)C)NC(=O)[C@H](CCCNC(=N)N)NC(=O)[C@H](CO)NC(=O)[C@@H](NC(=O)[C@H](CC(=O)O)NC(=O)[C@H](CO)NC(=O)[C@@H](NC(=O)[C@H](Cc1ccccc1)NC(=O)[C@@H](NC(=O)CNC(=O)[C@H](CCC(=O)O)NC(=O)C(C)(C)NC(=O)[C@@H](N)Cc1c[nH]cn1)[C@@H](C)O)[C@@H](C)O)C(C)C)C(=O)N[C@@H](CCC(N)=O)C(=O)N[C@@H](Cc1c[nH]c2ccccc12)C(=O)N[C@@H](CC(C)C)C(=O)N[C@H](C(N)=O)C(C)C [compound 178] (H-H[Aib]EGTFTSDVSRLLEGAALQRFIQWLV-NH2) | 0.77 | 29072 | – | – | – | 0.0631 nM | 891 | 63.1 nM
CC(C)C[C@H](NC(=O)[C@H](Cc1ccccc1)NC(=O)[C@H](CCCNC(=N)N)NC(=O)[C@H](CCC(N)=O)NC(=O)C(C)(C)NC(=O)[C@H](C)NC(=O)[C@H](C)NC(=O)[C@H](CCC(=O)O)NC(=O)[C@H](CCC(=O)O)NC(=O)[C@H](CCCCNC(=O)COCCOCCNC(=O)COCCOCCNC(=O)CC[C@H](NC(=O)CCCCCCCCCCCCCCCCCCC(=O)O)C(=O)O)NC(=O)[C@H](CC(C)C)NC(=O)[C@@H](NC(=O)[C@H](CO)NC(=O)[C@@H](NC(=O)[C@H](CC(=O)O)NC(=O)[C@H](CO)NC(=O)[C@@H](NC(=O)[C@H](Cc1ccccc1)NC(=O)[C@@H](NC(=O)CNC(=O)[C@H](CCC(=O)O)NC(=O)C(C)(C)NC(=O)[C@@H](N)Cc1c[nH]cn1)[C@@H](C)O)[C@@H](C)O)C(C)C)[C@@H](C)O)C(=O)N[C@@H](CCC(=O)O)C(=O)N[C@@H](Cc1c[nH]cn1)C(=O)N[C@@H](CC(C)C)C(=O)N[C@H](C(N)=O)C(C)C [compound 77] (H-H[Aib]EGTFTSDVSTLK([AEEA-AEEA-γGlu-C20 diacid])EEAA[Aib]QRFLEHLV-NH2) | 0.08 | 11936 | 74783 | 0.02 nM | 1580 nM | – | – | –
CC(C)C[C@H](NC(=O)[C@H](Cc1ccccc1)NC(=O)[C@H](CCCNC(=N)N)NC(=O)[C@H](CCC(N)=O)NC(=O)[C@H](C)NC(=O)[C@H](C)NC(=O)[C@H](C)NC(=O)[C@@H](NC(=O)[C@H](CCC(=O)O)NC(=O)[C@H](CCCCNC(=O)COCCOCCNC(=O)COCCOCCNC(=O)CC[C@H](NC(=O)CCCCCCCCCCCCCCCCCCC(=O)O)C(=O)O)NC(=O)[C@H](CC(C)C)NC(=O)[C@H](CCC(=O)O)NC(=O)[C@H](CO)NC(=O)[C@@H](NC(=O)[C@H](CC(=O)O)NC(=O)[C@H](CO)NC(=O)[C@@H](NC(=O)[C@H](Cc1ccccc1)NC(=O)[C@@H](NC(=O)CNC(=O)[C@H](CCC(=O)O)NC(=O)C(C)(C)NC(=O)[C@@H](N)Cc1c[nH]cn1)[C@@H](C)O)[C@@H](C)O)C(C)C)[C@@H](C)O)C(=O)N[C@@H](CCC(=O)O)C(=O)N[C@@H](Cc1c[nH]cn1)C(=O)N[C@@H](CC(C)C)C(=O)N[C@H](C(N)=O)C(C)C [compound 57] (H-H[Aib]EGTFTSDVSELK([AEEA-AEEA-γGlu-C20 diacid])ETAAAQRFLEHLV-NH2) | 0.08 | 4882 | 212618 | 0.0251 nM | 5010 nM | – | – | –

Results, then the compound that gave them:

Turbidity (pH 7) [1] | Fibril formation [2] | Selectivity [3] | EC50 [3, 5] | EC50 [4, 6] | EC50 [3, 7] | SCTR EC50/GLP1R EC50 ratio [3] | EC50 [4, 8] | SMILES
0.08 | 241858 | 3341 | 0.126 nM | 398 nM | – | – | – | CC(C)C[C@H](NC(=O)[C@H](Cc1ccccc1)NC(=O)[C@H](CCCNC(=N)N)NC(=O)[C@H](CCC(N)=O)NC(=O)[C@H](CO)NC(=O)[C@H](C)NC(=O)[C@H](C)NC(=O)[C@H](Cc1ccccc1)NC(=O)[C@H](CCC(=O)O)NC(=O)[C@H](CCCCNC(=O)COCCOCCNC(=O)COCCOCCNC(=O)CC[C@H](NC(=O)CCCCCCCCCCCCCCCCCCC(=O)O)C(=O)O)NC(=O)[C@H](CC(C)C)NC(=O)[C@H](CCCNC(=N)N)NC(=O)[C@H](CO)NC(=O)[C@@H](NC(=O)[C@H](CC(=O)O)NC(=O)[C@H](CO)NC(=O)[C@@H](NC(=O)[C@H](Cc1ccccc1)NC(=O)[C@@H](NC(=O)CNC(=O)[C@H](CCC(=O)O)NC(=O)C(C)(C)NC(=O)[C@@H](N)Cc1c[nH]cn1)[C@@H](C)O)[C@@H](C)O)C(C)C)C(=O)N[C@@H](CCC(=O)O)C(=O)N[C@@H](Cc1c[nH]cn1)C(=O)N[C@@H](CC(C)C)C(=O)N[C@H](C(N)=O)C(C)C [compound 52] (H-H[Aib]EGTFTSDVSRLK([AEEA-AEEA-γGlu-C20 diacid])EFAASQRFLEHLV-NH2)
0.09 | 14344 | 10668 | 0.00631 nM | 79.4 nM | – | – | – | CC(C)C[C@H](NC(=O)[C@H](Cc1ccccc1)NC(=O)[C@H](CCCNC(=N)N)NC(=O)[C@H](CCC(N)=O)NC(=O)[C@H](CCC(N)=O)NC(=O)[C@H](C)NC(=O)[C@H](C)NC(=O)[C@H](CCC(=O)O)NC(=O)[C@H](CCC(=O)O)NC(=O)[C@H](CCCCNC(=O)COCCOCCNC(=O)COCCOCCNC(=O)CC[C@H](NC(=O)CCCCCCCCCCCCCCCCCCC(=O)O)C(=O)O)NC(=O)[C@H](CC(C)C)NC(=O)[C@H](CCCNC(=N)N)NC(=O)[C@H](CO)NC(=O)[C@@H](NC(=O)[C@H](CC(=O)O)NC(=O)[C@H](CO)NC(=O)[C@@H](NC(=O)[C@H](Cc1ccccc1)NC(=O)[C@@H](NC(=O)CNC(=O)[C@H](CCC(=O)O)NC(=O)C(C)(C)NC(=O)[C@@H](N)Cc1c[nH]cn1)[C@@H](C)O)[C@@H](C)O)C(C)C)C(=O)N[C@@H](CCC(=O)O)C(=O)N[C@@H](Cc1c[nH]cn1)C(=O)N[C@@H](CC(C)C)C(=O)N[C@H](C(N)=O)C(C)C [compound 73] (H-H[Aib]EGTFTSDVSRLK([AEEA-AEEA-γGlu-C20 diacid])EEAAQQRFLEHLV-NH2)

Source: patent publication US20260201008A1, “SECRETIN-DERIVED GLP1R SELECTIVE AGONISTS” (GUBRA A/S, priority 2023, published 2026)
